Test results: patent US20110040086A1, “Novel Beta-Lactam Antibiotics, Methods for Their Production, and Their Use” (DRITTE PATENTPORTFOLIO BETEILIGUNGSGESELLSCHAFT MB, priority 2007, published 2011)

How the values were obtained:
S. epidermidis 125 = experiment: agar diffusion test (Test System II, multi-resistant germs); format: cell-based, Staphylococcus epidermidis
Experimental: (§1) The test substances are deposited in stepped quantities (10 μg, 50 μg, 100 μg) onto active ingredient carriers (sensi-discs). For this purpose, the test substances are dissolved in methanol or A. dest. according to their solubility. Each inoculated plate is fitted with 3 test sheets.
(§2) Test System II (Effect Against Multi-Resistant Germs)
(§3) For this purpose, bacteria is cultivated on Müller-Hinton-Agar II plates.
(§4) With 1-1.5 ml physiological saline solution, a bacteria suspension of McFarland 0.5 (corresponds to a bacteria density of 150×10^6 germs) is produced. Then, with a sterile glass rod, a small drop of bacteria suspension is placed on the Müller-Hinton-Agar plate and coated in three layers (vertical, horizontal, and transverse). Thereafter, the sensi-discs with the novel semi-synthetic test substances are placed on top. The fitted plates are incubated for 18-20 hours at 37° C. After incubation, the diameters of the zones of inhibition are read as a measure for the antimicrobial activity of the novel semi-synthetic test substances.

[1] = system: Bacillus megaterium SBUG 1152; experiment: agar diffusion test (Test System 1, antimicrobial effect); format: cell-based
Experimental: (§5) Test System 1 (Antimicrobial Effect)
(§6) The test germs Escherichia coli SBUG 1135 and Bacillus megaterium SBUG 1152 are drawn overnight (17 hours at 37° C.) in 5 ml nutrient medium II. The incubation is performed in a shaking incubator (INFORS AG CH 4103, Bottmingen, Switzerland) at a shaking frequency of 180 rpm.
(§7) After 17 h incubation time, Escherichia coli has reached a cell density of ca. 2.4×10^10 cells/ml and Bacillus megaterium a cell density of ca. 2.1×10^8 cells/ml.
(§8) The seeding of bacteria in agar is selected so that, dense, but not confluent individual colonies develop after the incubation.
Bacillus megaterium: 0.1 ml of non-diluted overnight culture (ÜN) in 10 ml nutrient agar corresponds to a cell count of 10^6.
(§9) The inoculated nutrient agar is set in sterile Petri dishes and left standing for a few minutes for drying.
as §1
(§10) After a 20-hour incubation time at 37° C., the zones of inhibition around the individual test sheets could be measured. The diameter of the zone of inhibition is specified in mm.

[2] = logP value by HPLC according to Donovan et al.; details: HPLC with methanol/0.1% phosphoric acid gradient, pH 2
Experimental: • Operating temperature 18-24° C. • Flow 1.5 mL/min • Linear gradient (methanol/0.1% phosphoric acid pH 2) from 10% to 100% methanol in 9.4 min, equilibrium time between 2 runs 6 min
ca. 0.5 mg of analyte is added to 0.5 ml of a standard solution (440 mg methyl phenyl sulfonate and 380 μl toluene in 150 mL methanol). 2 μl of this sample solution is injected.
Because the distribution coefficients of the two standards running in each test are known, the distribution coefficient of the analytes can be determined from the relationships of the analyte/standard retention times.

S. aureus 33490 = experiment: agar diffusion test (Test System II, multi-resistant germs); format: cell-based, Staphylococcus aureus; parameters: key: r = resistant (no detectable zone of inhibition)
Experimental: as §1, §2, §3, §4

[3] = system: S. aureus North Germany strain; experiment: as above; format: cell-based, Staphylococcus aureus; parameters: key: r = resistant (no detectable zone of inhibition)
Experimental: as §1, §2, §3, §4

S. aureus 34289 = experiment: as above; format: cell-based, Staphylococcus aureus; parameters: key: r = resistant (no detectable zone of inhibition)
Experimental: as §1, §2, §3, §4

S. aureus 36881 = experiment: as above; format: cell-based, Staphylococcus aureus; parameters: key: r = resistant (no detectable zone of inhibition)
Experimental: as §1, §2, §3, §4

S. aureus 39105 = experiment: as above; format: cell-based, Staphylococcus aureus; parameters: key: r = resistant (no detectable zone of inhibition)
Experimental: as §1, §2, §3, §4

S. aureus 526 = experiment: as above; format: cell-based, Staphylococcus aureus; parameters: key: r = resistant (no detectable zone of inhibition)
Experimental: as §1, §2, §3, §4

S. aureus 520 = experiment: as above; format: cell-based, Staphylococcus aureus; parameters: key: r = resistant (no detectable zone of inhibition)
Experimental: as §1, §2, §3, §4

E. faecalis 945 = experiment: as above; format: cell-based, Enterococcus faecalis; parameters: key: r = resistant (no detectable zone of inhibition)
Experimental: as §1, §2, §3, §4

[4] = system: Enterococcus faecalis 769; experiment: as above; format: cell-based; parameters: key: r = resistant (no detectable zone of inhibition)
Experimental: as §1, §2, §3, §4

[5] = system: Staphylococcus aureus 315; experiment: as above; format: cell-based; parameters: key: r = resistant (no detectable zone of inhibition)
Experimental: as §1, §2, §3, §4

S. aureus 38418 = experiment: as above; format: cell-based, Staphylococcus aureus
Experimental: as §1, §2, §3, §4

S. aureus ATCC 6538 = experiment: as above; format: cell-based, Staphylococcus aureus
Experimental: as §1, §2, §3, §4

[6] = system: Escherichia coli SBUG 1135; experiment: agar diffusion test (Test System 1, antimicrobial effect); format: cell-based
Experimental: as §5, §6, §7, §8
Escherichia coli: the ÜN is diluted 1:100 with physiological saline solution, of which 0.1 ml is converted into 10 ml nutrient agar. That corresponds to a cell count of 10^6.
as §9, §1, §10

B. subtilis AWD 166 = experiment: agar diffusion test (antimicrobial effect); format: cell-based, Bacillus subtilis
Experimental: as §8, §9, §1, §10

S. epidermidis 1071 = experiment: agar diffusion test (Test System II, multi-resistant germs); format: cell-based, Staphylococcus epidermidis
Experimental: as §1, §2, §3, §4

S. epidermidis 847 = experiment: as above; format: cell-based, Staphylococcus epidermidis
Experimental: as §1, §2, §3, §4

S. epidermidis 563 = experiment: as above; format: cell-based, Staphylococcus epidermidis
Experimental: as §1, §2, §3, §4

S. epidermidis 1068 = experiment: as above; format: cell-based, Staphylococcus epidermidis
Experimental: as §1, §2, §3, §4

- chromatographic logP [2]: -3.28
SMILES: N[C@@H](C(=O)N[C@@H]1C(=O)N2C(C(=O)O)=C(Cl)CS[C@H]12)c1ccccc1 [2c, Cefaclor, reference compound]
- Diameter of zone of inhibition (S. epidermidis 125; Quantity n 0.019): 26 mm
- Diameter of zone of inhibition (S. epidermidis 125; Quantity n 0.1): 34 mm
- Diameter of zone of inhibition (S. epidermidis 125; Quantity n 0.19): 36 mm
- Diameter of zone of inhibition ([1]; Quantity n 0.019): 36^1 mm
- Diameter of zone of inhibition ([1]; Quantity n 0.1): 38 mm
- Diameter of zone of inhibition ([1]; Quantity n 0.19): 40 mm
- Diameter of zone of inhibition (S. aureus 33490; Quantity n [μmol] 0.019): 24 mm
- Diameter of zone of inhibition (S. aureus 33490; Quantity n [μmol] 0.1): 30 mm
- Diameter of zone of inhibition (S. aureus 33490; Quantity n [μmol] 0.19): 32 mm
- Diameter of zone of inhibition ([3]; Quantity n 0.019): r
- Diameter of zone of inhibition ([3]; Quantity n 0.1): 10 mm
- Diameter of zone of inhibition ([3]; Quantity n 0.19): 14 mm
- Diameter of zone of inhibition (S. aureus 34289; Quantity n [mol] 0.019): r
- Diameter of zone of inhibition (S. aureus 34289; Quantity n [mol] 0.1): r
- Diameter of zone of inhibition (S. aureus 34289; Quantity n [mol] 0.19): 10 mm
- Diameter of zone of inhibition (S. aureus 36881; Quantity n 0.019): r
- Diameter of zone of inhibition (S. aureus 36881; Quantity n 0.1): 12 mm
- Diameter of zone of inhibition (S. aureus 36881; Quantity n 0.19): 18 mm
- Diameter of zone of inhibition (S. aureus 39105; Quantity n 0.019): 22 mm
- Diameter of zone of inhibition (S. aureus 39105; Quantity n 0.1): 24 mm
- Diameter of zone of inhibition (S. aureus 39105; Quantity n 0.19): 28 mm
- Diameter of zone of inhibition (S. aureus 526; Quantity n 0.019): r
- Diameter of zone of inhibition (S. aureus 526; Quantity n 0.1): 8 mm
- Diameter of zone of inhibition (S. aureus 526; Quantity n 0.19): 12 mm
- Diameter of zone of inhibition (S. aureus 520; Quantity n [mol] 0.019): r
- Diameter of zone of inhibition (S. aureus 520; Quantity n [mol] 0.1): 10 mm
- Diameter of zone of inhibition (S. aureus 520; Quantity n [mol] 0.19): 14 mm
- Diameter of zone of inhibition (E. faecalis 945; Quantity n 0.019): r
- Diameter of zone of inhibition (E. faecalis 945; Quantity n 0.1): 8 mm
- Diameter of zone of inhibition (E. faecalis 945; Quantity n 0.19): 12 mm
- Diameter of zone of inhibition ([4]; Quantity n 0.019): r^2
- Diameter of zone of inhibition ([4]; Quantity n 0.1): 8 mm
- Diameter of zone of inhibition ([4]; Quantity n 0.19): 14 mm
- Diameter of zone of inhibition ([5]; Quantity n 0.019): r
- Diameter of zone of inhibition ([5]; Quantity n 0.1): 10 mm
- Diameter of zone of inhibition ([5]; Quantity n 0.19): 12 mm
- Diameter of zone of inhibition (S. aureus 38418; Quantity n [mol] 0.019): 26 mm
- Diameter of zone of inhibition (S. aureus 38418; Quantity n [mol] 0.1): 34 mm
- Diameter of zone of inhibition (S. aureus 38418; Quantity n [mol] 0.19): 38 mm
- Diameter of zone of inhibition (S. aureus ATCC 6538; Quantity n 0.019): 30 mm
- Diameter of zone of inhibition (S. aureus ATCC 6538; Quantity n 0.1): 38 mm
- Diameter of zone of inhibition (S. aureus ATCC 6538; Quantity n 0.19): 40 mm
- Diameter of zone of inhibition ([6]; Quantity n 0.019): 24 mm
- Diameter of zone of inhibition ([6]; Quantity n 0.1): 30 mm
- Diameter of zone of inhibition ([6]; Quantity n 0.19): 32 mm
- Diameter of zone of inhibition (B. subtilis AWD 166; Quantity n 0.019): 36 mm
- Diameter of zone of inhibition (B. subtilis AWD 166; Quantity n 0.1): 38 mm
- Diameter of zone of inhibition (B. subtilis AWD 166; Quantity n 0.19): 40 mm
- Diameter of zone of inhibition (S. epidermidis 1071; Quantity n 0.019): 28 mm
- Diameter of zone of inhibition (S. epidermidis 1071; Quantity n 0.1): 30 mm
- Diameter of zone of inhibition (S. epidermidis 1071; Quantity n 0.19): 32 mm
- Diameter of zone of inhibition (S. epidermidis 847; Quantity n [mol] 0.019): 14 mm
- Diameter of zone of inhibition (S. epidermidis 847; Quantity n [mol] 0.1): 24 mm
- Diameter of zone of inhibition (S. epidermidis 847; Quantity n [mol] 0.19): 28 mm
- Diameter of zone of inhibition (S. epidermidis 563; Quantity n 0.019): 30 mm
- Diameter of zone of inhibition (S. epidermidis 563; Quantity n 0.1): 34 mm
- Diameter of zone of inhibition (S. epidermidis 563; Quantity n 0.19): 36 mm
- Diameter of zone of inhibition (S. epidermidis 1068; Quantity n 0.019): 22 mm
- Diameter of zone of inhibition (S. epidermidis 1068; Quantity n 0.1): 24 mm
- Diameter of zone of inhibition (S. epidermidis 1068; Quantity n 0.19): 30 mm
